One data set concerns the target human Nav1.5 (Homo sapiens (Human), UniProt Q14524). The data set can be described thus: Qpatch automated patch-clamp, peak Nav1.5 current inhibition, 5-Hz AF-like assay (holding potential -85 mV). Format: cell-based. The settings on record: CHO-K1 cells stably expressing human Nav1.5, Table 6, Examples 63-90, read-out: Nav1.5 IC50 (5 Hz, AF Rate). The text has this: Electrophysiology was used to measure the ionic currents in isolated living cells using automated patch-clamp recording, performed using an automated patch-clamp machine called Qpatch (Sophion Bioscience). Two different assay conditions were used to identify compounds with atrial-selective potential. The 5-Hz AF-like assay has more depolarized holding potential at −85 mV to mimic atrial resting membrane potential (RMP) and was used to identify compounds of strong rate-dependence. Active, rate-dependent compounds were then screened at 1 Hz (i.e., sinus rate) at the holding potential of −100 mV to mimic the ventricular scenario and help identify compounds with the largest potency separation or attenuation from the 5-Hz AF-like assay. Such compounds have the potential for treating AF without the QRS liability inherent to Class Ic drugs.
The sodium current conducted through a cell (via Nav1.5) or electrical signals were processed through a low-pass filter at 5 KHz, re-digitalized and acquired at 20 kHz. Series resistance was not compensated and leak subtraction was performed.
1 to 3 million Chinese Hamster Ovary cells (also known as CHO-K1) stably expressing human Nav1.5 were seeded into […] culture flasks with 25 mL medium (consisting of Gibco Dulbecco's Modified Eagle Medium as a base medium with 1% MEM non-essential amino acids, 400 μg/mL Geneticin, 5 μg/mL puromycin and 10% fetal bovine serum) 48-72 hours prior to the experiments. On the day of the experiment, cells were washed once with phosphate-buffered saline (also known as PBS; Gibco) detached with Detachin™ (Genlantis), and re-suspended in CHO—S-SFM II media (Gibco) at 200,000 cells/mL. The CHO—S-SFM II was replaced with assay solutions prior to the assays. Whole-cell currents were recorded at room temperature in the whole-cell configuration. The external aqueous assay solution (pH=7.4; Osm=307-315) contained the following (the concentration for each component is expressed in parentheses in mM): NaCl (140 mM), KCl (4 mM), CaCl2) (2 mM), MgCl2 (1 mM), 4-(2-hydroxyethyl)-1-piperazineethanesulfonic acid, also known as HEPES (10 mM), and glucose (5 mM). The internal aqueous assay solution (pH=7.2; Osm=292-295) contained the following (the concentration for each component is expressed in parentheses in mM): CsF (110 mM), CsCl (10 mM), NaCl (10 mM), HEPES (10 mM), and ethylene glycolbis(β-aminoethyl ether)-N,N,N′,N′-tetraacetic acid, also known as EGTA (10 mM).
To assess peak Nav1.5 current inhibition in an atrial fibrillation-mimicking condition (Nav1.5 IC50 (5 Hz, AF-like rate) (μM)), compounds were first prepared at 10 mM in DMSO, and cells were pre-incubated with test compounds at each concentration for 3 min. in an ascending order of 0, 0.37, 1.1, 3.3, 10 and 30 μM. An atrial action potential-like protocol consisting of a voltage ramp (+10 mV to −85 mV for a 150 ms duration and a holding potential at −85 mV) was then applied to cells at 5 Hz for 12 s until no further current change or inhibition was observed. The percent inhibition (expressed as ([Iafter compound treatment/Ibefore compound treatment]×100%) is calculated by normalizing the peak current amplitude at the last pulse of each of the 6 compound concentrations by the amplitude before exposure to the test compound. The compiled data was further normalized by vehicle control (DMSO) to account for Nav1.5 current run-down, and IC50 was calculated by Matlab (MathWorks, USA).
A general note: Patch clamp records ionic current or voltage across a cell membrane.
Chain of human Nav1.5 (Q14524 whole entry): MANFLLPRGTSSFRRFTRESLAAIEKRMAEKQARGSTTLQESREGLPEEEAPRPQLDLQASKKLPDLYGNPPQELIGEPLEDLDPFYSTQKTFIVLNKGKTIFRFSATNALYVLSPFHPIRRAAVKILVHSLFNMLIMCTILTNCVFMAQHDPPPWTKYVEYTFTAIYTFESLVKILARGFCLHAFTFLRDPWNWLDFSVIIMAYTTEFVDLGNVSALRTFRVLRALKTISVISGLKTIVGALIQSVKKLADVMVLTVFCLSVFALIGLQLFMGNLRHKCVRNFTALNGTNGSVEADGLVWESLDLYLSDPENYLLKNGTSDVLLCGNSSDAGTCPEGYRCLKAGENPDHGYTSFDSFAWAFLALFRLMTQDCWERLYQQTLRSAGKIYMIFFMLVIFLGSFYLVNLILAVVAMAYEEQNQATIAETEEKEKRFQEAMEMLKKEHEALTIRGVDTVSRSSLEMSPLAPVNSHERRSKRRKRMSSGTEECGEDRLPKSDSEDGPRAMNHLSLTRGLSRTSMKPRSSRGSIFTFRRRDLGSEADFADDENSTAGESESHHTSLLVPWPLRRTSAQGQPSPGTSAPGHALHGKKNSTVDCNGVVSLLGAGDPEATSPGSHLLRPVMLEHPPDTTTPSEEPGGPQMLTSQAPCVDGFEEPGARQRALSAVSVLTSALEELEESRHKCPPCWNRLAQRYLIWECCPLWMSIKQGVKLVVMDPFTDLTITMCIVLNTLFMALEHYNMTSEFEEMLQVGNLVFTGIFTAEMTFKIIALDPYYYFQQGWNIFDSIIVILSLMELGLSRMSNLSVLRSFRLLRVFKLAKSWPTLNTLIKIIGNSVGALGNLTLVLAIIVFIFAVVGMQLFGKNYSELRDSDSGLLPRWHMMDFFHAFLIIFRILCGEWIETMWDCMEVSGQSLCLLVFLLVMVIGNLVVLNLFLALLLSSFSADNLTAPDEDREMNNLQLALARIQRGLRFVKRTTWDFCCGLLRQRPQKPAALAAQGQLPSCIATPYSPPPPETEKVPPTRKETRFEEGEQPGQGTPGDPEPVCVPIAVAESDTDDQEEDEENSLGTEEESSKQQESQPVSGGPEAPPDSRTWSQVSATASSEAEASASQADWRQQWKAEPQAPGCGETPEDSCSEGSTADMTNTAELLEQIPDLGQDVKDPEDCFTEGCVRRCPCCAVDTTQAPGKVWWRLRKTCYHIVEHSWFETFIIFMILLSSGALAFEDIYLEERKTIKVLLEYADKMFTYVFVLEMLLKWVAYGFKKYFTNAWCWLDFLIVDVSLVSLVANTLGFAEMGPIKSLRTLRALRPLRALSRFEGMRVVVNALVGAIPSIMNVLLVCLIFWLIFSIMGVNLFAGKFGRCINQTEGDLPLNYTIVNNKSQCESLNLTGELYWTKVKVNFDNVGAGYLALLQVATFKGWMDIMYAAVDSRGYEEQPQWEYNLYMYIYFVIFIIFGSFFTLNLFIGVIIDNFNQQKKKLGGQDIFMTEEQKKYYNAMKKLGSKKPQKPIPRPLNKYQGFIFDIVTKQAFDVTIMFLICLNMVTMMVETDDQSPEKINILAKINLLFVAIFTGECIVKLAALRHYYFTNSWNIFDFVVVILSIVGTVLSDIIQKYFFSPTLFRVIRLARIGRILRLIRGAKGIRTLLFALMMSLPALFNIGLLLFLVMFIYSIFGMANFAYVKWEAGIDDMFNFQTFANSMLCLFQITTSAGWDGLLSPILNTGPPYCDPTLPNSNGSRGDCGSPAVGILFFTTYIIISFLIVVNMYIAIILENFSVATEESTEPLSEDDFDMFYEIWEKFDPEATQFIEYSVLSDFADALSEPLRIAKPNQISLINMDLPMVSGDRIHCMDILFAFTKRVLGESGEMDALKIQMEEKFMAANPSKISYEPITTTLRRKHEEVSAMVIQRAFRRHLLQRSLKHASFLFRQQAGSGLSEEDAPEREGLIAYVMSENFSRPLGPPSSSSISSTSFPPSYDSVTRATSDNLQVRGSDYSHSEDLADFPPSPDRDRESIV
The term IC50 denotes the point on the concentration scale where inhibition reaches its midpoint. `Cc1ccc(F)c(Cn2nnc(-c3cccc([C@@](C)(O)CS(N)(=O)=O)n3)n2)c1Cl` [Example 63]: the IC50 is 3.8 µM. Still for that read-out and setting: the result for `C[C@](O)(CS(N)(=O)=O)c1cccc(-c2nnn(Cc3cc(F)ccc3Br)n2)n1` [Example 64] reads 13 µM; that for `C[C@](O)(CS(N)(=O)=O)c1cccc(-c2nnn(Cc3ccc(Br)cc3F)n2)n1` [Example 65], 17 µM. On to `C[C@](O)(CS(N)(=O)=O)c1cccc(-c2nnn(Cc3cccc(Br)c3F)n2)n1` [Example 66], for which the IC50 amounted to 28 µM.

As for `C[C@](O)(CS(N)(=O)=O)c1cccc(-c2nnn(Cc3c(F)cccc3Br)n2)n1` [Example 67], the IC50 came out at 8.1 µM. Turning to `Cc1cc(C)c(C)c(Cn2nnc(-c3cccc([C@@](C)(O)CS(N)(=O)=O)n3)n2)c1` [Example 68], the IC50 turned out to be 16 µM. Regarding `Cc1cccc(Cn2nnc(-c3cccc([C@@](C)(O)CS(N)(=O)=O)n3)n2)c1C` [Example 69], the half-maximal inhibitory concentration (IC50) came to 11 µM.

In the case of `C[C@](O)(CS(N)(=O)=O)c1cccc(-c2nnn(Cc3cccc(Cl)c3Cl)n2)n1` [Example 70], the IC50 turned out to be 22 µM. The same measure, in the same setting: the result for `Cc1ccc(C(C)C)cc1Cn1nnc(-c2cccc([C@@](C)(O)CS(N)(=O)=O)n2)n1` [Example 72] reads 7.3 µM; that for `C[C@](O)(CS(N)(=O)=O)c1cccc(-c2nnn(Cc3c(F)ccc(Cl)c3F)n2)n1` [Example 73], 19 µM.

Staying with this data set, now noted: CHO-K1 cells stably expressing human Nav1.5, holding potential -85 mV, Table 5, read-out: Nav1.5 IC50 (5 Hz, AF Rate).
Take “3-(6-(1-(2-fluoro-5-(trifluoromethoxy)benzyl)-1H-pyrazol-3-yl)pyridin-2-yl)-3-hydroxy-2-methylbutane-2-sulfonamide [Example 54]”: the IC50 amounted to 4.2 µM. Still for that read-out and setting: the result for `CCC(O)(CS(N)(=O)=O)c1cccc(-c2ccn(Cc3cc(OC(F)(F)F)ccc3F)n2)n1` (racemic) [Example 35, 2-(6-(1-(2-fluoro-5-(trifluoromethoxy)benzyl)-1H-pyrazol-3-yl)pyridin-2-yl)-2-hydroxybutane-1-sulfonamide] reads 4 µM. Still for that read-out and setting: under `NS(=O)(=O)CC(O)c1cccc(-c2nnn(Cc3cc(OC(F)(F)F)ccc3F)n2)n1` (racemic) [Example 48, 2-(6-(2-(2-fluoro-5-(trifluoromethoxy)benzyl)-2H-tetrazol-5-yl)pyridin-2-yl)-2-hydroxyethane-1-sulfonamide] stands 5.5 µM; under `CC(C)(C(O)c1cccc(-c2ccn(Cc3cc(OC(F)(F)F)ccc3F)n2)n1)S(N)(=O)=O` (racemic) [Example 53, 1-(6-(1-(2-fluoro-5-(trifluoromethoxy)benzyl)-1H-pyrazol-3-yl)pyridin-2-yl)-1-hydroxy-2-methylpropane-2-sulfonamide], 12 µM; under `CC(O)(CS(N)(=O)=O)c1cccc(-c2nnn(Cc3cc(OC(F)(F)F)ccc3F)n2)n1` (racemic) [Rac-1 + 2, 2-(6-(2-(2-fluoro-5-(trifluoromethoxy)benzyl)-2H-tetrazol-5-yl)pyridin-2-yl)-2-hydroxypropane-1-sulfonamide], 3.6 µM. As for `CC(O)(CS(N)(=O)=O)c1cccc(-c2nnn(Cc3c(F)ccc4c3OC(F)(F)O4)n2)n1` (racemic) [Rac-3 + 4, 2-hydroxy-2-(6-(2-((2,2,5-trifluorobenzo[d][1,3]dioxol-4-yl)methyl)-2H-tetrazol-5-yl)pyridin-2-yl)propane-1-sulfonamide], the IC50 stood at 7 µM. On the same count and under the same terms, the result for `CC(O)(CS(N)(=O)=O)c1cccc(-c2nc(Cc3cc(OC(F)(F)F)ccc3F)no2)n1` (racemic) [Rac-57 + 58, 2-(6-(3-(2-fluoro-5-(trifluoromethoxy)benzyl)-1,2,4-oxadiazol-5-yl)pyridin-2-yl)-2-hydroxypropane-1-sulfonamide] reads 3.7 µM. Same read-out and setting: the result for `CC(O)(CS(N)(=O)=O)c1cccc(-c2nnn(Cc3cc(F)ccc3F)n2)n1` (single isomer, unassigned) [Example 17, (R or S)-2-(6-(2-(2,5-difluorobenzyl)-2H-tetrazol-5-yl)pyridin-2-yl)-2-hydroxypropane-1-sulfonamide] reads 24 µM; that for `CC(O)(CS(N)(=O)=O)c1cccc(-c2nnn(Cc3cc(F)ccc3F)n2)n1` (single isomer, unassigned) [Example 18, (R or S)-2-(6-(2-(2,5-difluorobenzyl)-2H-tetrazol-5-yl)pyridin-2-yl)-2-hydroxypropane-1-sulfonamide], 20 µM. The same measure, in the same setting: under `CC(O)(CS(N)(=O)=O)c1cccc(-c2nnn(Cc3cc(OC(F)(F)F)ccc3F)n2)c1` (single isomer, unassigned) [Example 25, (R or S)-2-(3-(2-(2-fluoro-5-(trifluoromethoxy)benzyl)-2H-tetrazol-5-yl)phenyl)-2-hydroxypropane-1-sulfonamide] stands 5.5 µM. With `CC(O)(CS(N)(=O)=O)c1cccc(-c2nnn(Cc3cc(OC(F)(F)F)ccc3F)n2)c1` (single isomer, unassigned) [Example 26, (R or S)-2-(3-(2-(2-fluoro-5-(trifluoromethoxy)benzyl)-2H-tetrazol-5-yl)phenyl)-2-hydroxypropane-1-sulfonamide], the IC50 came out at 1.8 µM. Same read-out and setting: under `CC(O)(CS(N)(=O)=O)c1cccc(-c2nnn(Cc3cc(OCC(F)(F)F)ccc3F)n2)n1` (single isomer, unassigned) [Example 29, (R or S)-2-(6-(2-(2-fluoro-5-(2,2,2-trifluoroethoxy)benzyl)-2H-tetrazol-5-yl)pyridin-2-yl)-2-hydroxypropane-1-sulfonamide] stands 0.8 µM. The same measure, in the same setting: under `CC(O)(CS(N)(=O)=O)c1cccc(-c2nnn(Cc3cc(OCC(F)(F)F)ccc3F)n2)n1` (single isomer, unassigned) [Example 30, (R or S)-2-(6-(2-(2-fluoro-5-(2,2,2-trifluoroethoxy)benzyl)-2H-tetrazol-5-yl)pyridin-2-yl)-2-hydroxypropane-1-sulfonamide] stands 1 µM. Consider `CC(O)(CS(N)(=O)=O)c1nc(-c2nnn(Cc3cc(OC(F)(F)F)ccc3F)n2)ccc1Cl` (single isomer, unassigned) [Example 42, (R or S)-2-(3-chloro-6-(2-(2-fluoro-5-(trifluoromethoxy)benzyl)-2H-tetrazol-5-yl)pyridin-2-yl)-2-hydroxypropane-1-sulfonamide], for which the IC50 was determined as 12 µM. Same read-out and setting: under `CC(O)(CS(N)(=O)=O)c1nc(-c2nnn(Cc3cc(OC(F)(F)F)ccc3F)n2)ccc1Cl` (single isomer, unassigned) [Example 43, (R or S)-2-(3-chloro-6-(2-(2-fluoro-5-(trifluoromethoxy)benzyl)-2H-tetrazol-5-yl)pyridin-2-yl)-2-hydroxypropane-1-sulfonamide] stands 8.2 µM. `CC(C(O)c1cccc(-c2nnn(Cc3cc(OC(F)(F)F)ccc3F)n2)n1)S(N)(=O)=O` (single isomer, unassigned) [Example 49, (JR or 1S,2R or 2S)-1-(6-(2-(2-fluoro-5-(trifluoromethoxy)benzyl)-2H-tetrazol-5-yl)pyridin-2-yl)-1-hydroxypropane-2-sulfonamide]: the IC50 was found to be 5.7 µM.

Consider `CC(C(O)c1cccc(-c2nnn(Cc3cc(OC(F)(F)F)ccc3F)n2)n1)S(N)(=O)=O` (single isomer, unassigned) [Example 50, (JR or 1S,2R or 2S)-1-(6-(2-(2-fluoro-5-(trifluoromethoxy)benzyl)-2H-tetrazol-5-yl)pyridin-2-yl)-1-hydroxypropane-2-sulfonamide], for which the IC50 came to 6.6 µM. The same measure, in the same setting: under `CC(O)(CS(N)(=O)=O)c1cccc(-c2cnn(Cc3cc(OC(F)(F)F)ccc3F)n2)n1` (single isomer, unassigned) [Example 62, (R or S)-2-(6-(2-(2-fluoro-5-(trifluoromethoxy)benzyl)-2H-1,2,3-triazol-4-yl)pyridin-2-yl)-2-hydroxypropane-1-sulfonamide] stands 3.4 µM.

Values taken from patent US20250034108A1, “SODIUM CHANNEL BLOCKERS” (NOVARTIS AG, priority 2023, published 2025).
